# Assay results from ChEMBL document CHEMBL5096192, “Recent advancements in anti-leishmanial research: Synthetic strategies and structural activity relationships” (Eur J Med Chem, 2021).
# Columns and labels:
# Leishmania amazonensis [1] = test: Antileishmanial activity against promastigote form of Leishmania amazonensis (MHOM/BR/71973/M2269) assessed as parasite growth inhibition by MTT assay; type: functional, organism-based
# Leishmania amazonensis [2] = test: Antileishmanial activity against amastigote form of Leishmania amazonensis (MHOM/BR/71973/M2269) assessed as parasite growth inhibition by MTT assay; type: functional, organism-based
# Leishmania braziliensis [3] = test: Antileishmanial activity against promastigote form of Leishmania braziliensis MHOM/BR/75/M2904 promastigotes assessed as parasite growth inhibition incubated for 48 hrs by resazurin assay; type: functional, organism-based; conditions: MHOM/BR/75/M2904, 48 h
# Leishmania donovani [4] = test: Antileishmanial activity against promastigote form of wild-type Leishmania donovani MHOM/80/IN/Dd8 assessed as inhibition of parasite growth incubated for 48 hrs by MTT assay; type: functional, organism-based; conditions: MHOM/80/IN/Dd8, 48 h
# Leishmania panamensis [5] = test: Antileishmanial activity against Leishmania panamensis MHOM/CO/87/UA140-EGFP intracellular amastigotes infected in U-937 cells assessed as parasite growth inhibition measured after 72 hrs by flow cytometry analysis; type: functional, organism-based; conditions: U-937, 72 h
# U-937 = test: Cytotoxicity against human U-937 cells assessed as reduction in cell viability measured after 72 hrs by MTT assay; type: functional; conditions: read-out: LC50 (the source's name)
# Leishmania major [6] = test: Antileishmanial activity against Leishmania major JISH118 promastigote infected in human THP-1 cells assessed as parasite growth inhibition measured after 48 hrs by Giemsa staining based analysis; type: functional, organism-based; conditions: JISH118, THP-1, 48 h
# Leishmania donovani [7] = test: Antileishmanial activity against promastigote form of Leishmania donovani MHOM/IN/80/Dd8 transfected with firefly luciferase gene assessed as parasite growth inhibition incubated for 96 hrs by Steady Glo reagent based luminescence assay; type: functional, organism-based; conditions: MHOM/IN/80/Dd8, 96 h
# [8] = target: Trypanothione reductase (Leishmania donovani) (UniProt P39050); test: Inhibition of Leishmania donovani trypanothione reductase expressed in Escherichia coli BL21(DE3) using TS2 and NADPH as substrate at 100 uM preincubated for 5 mins followed by substrate addition by DTNB-reagent based spectrophotometric method
# Sequence of Trypanothione reductase (Leishmania donovani) (P39050 whole entry): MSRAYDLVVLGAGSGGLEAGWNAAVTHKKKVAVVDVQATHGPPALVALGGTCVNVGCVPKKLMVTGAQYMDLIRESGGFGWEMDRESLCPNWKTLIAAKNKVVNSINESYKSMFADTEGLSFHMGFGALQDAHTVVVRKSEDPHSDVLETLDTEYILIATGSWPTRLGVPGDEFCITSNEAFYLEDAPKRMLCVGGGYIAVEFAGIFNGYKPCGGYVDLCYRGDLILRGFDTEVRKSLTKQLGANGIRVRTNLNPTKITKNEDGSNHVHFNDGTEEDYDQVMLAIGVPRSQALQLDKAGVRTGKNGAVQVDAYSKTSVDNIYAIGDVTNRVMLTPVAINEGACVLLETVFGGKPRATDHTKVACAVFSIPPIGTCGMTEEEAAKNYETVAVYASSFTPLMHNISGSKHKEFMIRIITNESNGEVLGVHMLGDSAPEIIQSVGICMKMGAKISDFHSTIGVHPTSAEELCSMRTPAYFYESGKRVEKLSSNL
# Leishmania mexicana [9] = test: Inhibition of recombinant Leishmania mexicana CPB2.8 delta CTE at 20 uM
# Leishmania infantum [10] = test: Antileishmanial activity against Leishmania infantum MHOM/MA/67/ITMAP263 intracellular amastigotes infected in primary peritoneal mouse macrophages assessed as inhibition of parasite growth by cell based assay; type: functional, organism-based; conditions: MHOM/MA/67/ITMAP263, Peritoneal macrophage
# Leishmania panamensis [11] = test: Antileishmanial activity against Leishmania panamensis MHOM/CO/87/UA140pIR-GFP intracellular amastigotes infected in human U-937 cells assessed as parasite growth inhibition measured after 72 hrs by flow cytometry analysis; type: functional, organism-based; conditions: U-937, 72 h
# Trypanosoma cruzi = test: Antitrypanosomal activity against Trypanosoma cruzi Tulahuen intracellular amastigotes transfected with beta-galactosidase infected in human U-937 cells assessed as viability of intracellular amastigotes measured after 72 hrs by spectrophotometry; type: functional, organism-based; conditions: U-937, 72 h
# Leishmania donovani [12] = test: Antileishmanial activity against Leishmania donovani Bob intracellular amastigotes assessed as parasite growth inhibition incubated for 72 hrs by LDH assay; type: functional, organism-based
# Leishmania panamensis [13] = test: Antileishmanial activity against promastigote form of Leishmania panamensis MHOM/CO/87/UA140-EGFP infected in human U-937 cells assessed as parasite growth inhibition measured after 72 hrs by flow cytometer analysis; type: functional, organism-based; conditions: U-937, 72 h
# Leishmania braziliensis [14] = test: Antileishmanial activity against promastigote form of Leishmania braziliensis MHOM/CO/88/301-EGFP infected in human U-937 cells assessed as parasite growth inhibition measured after 72 hrs by flow cytometer analysis; type: functional, organism-based; conditions: U-937, 72 h
# Leishmania infantum [15] = test: Antileishmanial activity against promastigote form of Leishmania infantum MHOM/BR/70/BH46 promastigote assessed as parasite growth inhibition incubated for 72 hrs by Neubauer chamber analysis; type: functional, organism-based; conditions: MHOM/BR/70/BH46, 72 h
# Leishmania infantum [16] = test: Antileishmanial activity against Leishmania infantum MHOM/MA/67/ITMAP263 intracellular amastigotes infected in mouse bone marrow derived macrophage cells assessed as parasite growth inhibition measured after 24 hrs by DAPI staining based microscopic analysis; type: functional, organism-based; conditions: MHOM/MA/67/ITMAP263, Macrophage
# [17] = Cytotoxicity against mouse bone marrow-derived macrophage cells assessed as reduction in cell viability measured after 24 hrs by resazurin assay; type: toxicity, cell-based, BMDM; conditions: bone marrow-derived macrophages
# Leishmania mexicana [18] = test: Antileishmanial activity against mammalian stage Leishmania mexicana MNYC/BZ/62/M379 axenic amastigotes assessed as inhibition of […] incubated for 24 hrs by alamar blue assay; type: functional; conditions: read-out: ED50 (the source's name)
# [19] = Cytotoxicity against BALB/c mouse peritoneal macrophages assessed as reduction in cell viability measured after 48 hrs by luminescence based CellTiter-Glo assay; type: toxicity, Peritoneal macrophage
# Leishmania infantum [20] = test: Antileishmanial activity against promastigote form of Leishmania infantum BH 46 assessed as parasite growth inhibition measured after 48 hrs by Celltiter-Glo assay; type: functional, organism-based; conditions: BH 46, 48 h
# Leishmania amazonensis [21] = test: Antileishmanial activity against Leishmania amazonensis IFLA/Br/67/PH8 intracellular amastigotes infected in BALB/c mouse peritoneal macrophages assessed as reduction in intracellular amastigotes incubated for 72 hrs by fluorometric analysis; type: functional, organism-based; conditions: IFLA/Br/67/PH8, 72 h
# [22] = tested on: Mycobacterium tuberculosis; test: Antimycobacterial activity against Mycobacterium tuberculosis H37Rv ATCC 27294 assessed as inhibition of bacterial growth and measured at 7 to 14 day by broth microdilution assay; type: functional; conditions: time 7-14 day
# Leishmania major [23] = test: Antileishmanial activity against Leishmania major (MHOM/IR/-173) promastigotes assessed as inhibition of parasite growth incubated for 72 hrs by alamar blue staining based analysis; type: functional, organism-based; conditions: MHOM/IR/-173, 72 h
# Leishmania amazonensis [24] = test: Antileishmanial activity against promastigote form of Leishmania amazonensis (MHOM/BR/75/Josefa) assessed as inhibition of parasite growth measured after 72 hrs by Neubauer counting chamber based analysis; type: functional, organism-based
# Leishmania donovani [25] = test: Antileishmanial activity against promastigote form of Leishmania donovani MHOM/IN/83/AG83 assessed as inhibition of promastigote growth incubated for 48 hrs by MTT reduction assay; type: functional, organism-based; conditions: MHOM/IN/83/AG83, 48 h
# Leishmania donovani [26] = test: Antileishmanial activity against Leishmania donovani MHOM/IN/83/AG83 intracellular amastigotes infected in mouse RAW264.7 cells assessed as parasite growth inhibition incubated for 48 hrs by Giemsa staining based microscopic analysis; type: functional, organism-based; conditions: MHOM/IN/83/AG83, RAW264.7, 48 h
smiles,measurement,setting,value
CCCc1cc(OC)c2oc(=O)c(C(=O)c3ccc([N+](=O)[O-])cc3)cc2c1,IC50,Leishmania amazonensis [1],3.53 µM
same,IC50,Leishmania amazonensis [2],12 µM
CC(C)=CCC1=C(OC(=O)CCc2cn(-c3ccc(C)cc3)nn2)C(=O)c2ccccc2C1=O,IC50,Leishmania braziliensis [3],15.9 µM
Clc1ccc(COc2ccc(-c3nc4ccccc4o3)cc2)c(Cl)c1,IC50,Leishmania donovani [4],57 µM
O=C1C=C(c2ccc(C(F)(F)F)cc2)S(=O)(=O)c2ccc(F)cc21,EC50,Leishmania panamensis [5],3.24 µM
same,CC50,U-937,561 µM
CN(C)CCCn1cc(/C=C/C(=O)c2ccc(Cl)cc2)c2ccccc21,IC50,Leishmania donovani [4],21.5 µM
Clc1cccc(Nc2nnc(-c3ccc(C(c4c[nH]c5ccccc45)c4c[nH]c5ccccc45)cc3)s2)c1,IC50,Leishmania major [6],0.7 µM
C=C(C1c2[nH]c3ccccc3c2CCN1C(=O)OC(C)(C)C)N(CC(=O)NC(C)(C)C)Cc1ccc(C)cc1 (stereo not drawn),IC50,Leishmania donovani [7],0.06 µM
same,inhibition,[8],53%
Cc1cc(C)cc(S(=O)(=O)n2c(SCC(=O)Nc3ccccc3)nc3ccccc32)c1,inhibition,Leishmania mexicana [9],97%
CCCCCCCCCCCCCCCCOP(=O)([O-])OCC[N+](C)(C)C [MILTEFOSINE],IC50,Leishmania donovani [4],24.2 µM
same,IC50,Leishmania infantum [10],4.5 µM
CC(CCCCCCC[n+]1ccn(C)c1)Oc1ccc(C(=O)/C=C/c2ccco2)cc1 (stereo not drawn),EC50,Leishmania panamensis [11],0.78 µM
same,EC50,Trypanosoma cruzi,0.66 µM
COC(=O)C(N)Cc1c[nH]c2ccccc12 (stereo not drawn),IC50,Leishmania donovani [12],18.2 µM
O=C(N/N=C1\CCOc2ccccc21)c1ccccc1,EC50,Leishmania panamensis [13],20.1 µg/mL
same,EC50,Leishmania braziliensis [14],12.1 µg/mL
S=C(N/N=C/c1c[nH]c2c(Br)cc(Br)cc12)Nc1ccccc1,IC50,Leishmania infantum [15],5.6 µM
CCCCCCCCNCc1ccc2c(c1)C(=O)CC(C)(C)O2,IC50,Leishmania infantum [16],24.6 µM
same,CC50 at 24 h,[17],40.2 µM
COC(=O)[C@]12CCC(C)(C)C[C@H]1C1=CC[C@@H]3[C@@]4(C)CC[C@@H]5O[C@H](c6ccccc6C(=O)O)OC[C@@]5(C)[C@@H]4CC[C@@]3(C)[C@]1(C)CC2,EC50,Leishmania mexicana [18],5 µM
C/C(=N\Nc1nc(-c2ccc(Br)cc2)cs1)c1ccccn1,CC50 at 48 h,[19],2.95 µM
same,IC50,Leishmania infantum [20],3.12 µM
Cc1cccc(Nc2nnc(-c3ccc(C(c4c[nH]c5ccccc45)c4c[nH]c5ccccc45)cc3)s2)c1,IC50,Leishmania major [6],0.7 µM
c1cncc(Nc2nnc(-c3ccc(C(c4c[nH]c5ccccc45)c4c[nH]c5ccccc45)cc3)s2)c1,IC50,Leishmania major [6],0.7 µM
O=[N+]([O-])c1ccc(COc2ccc(-c3nc4ccccc4[nH]3)cc2)cc1,IC50,Leishmania donovani [4],68 µM
Cn1cc[n+](CCCCCCCCOc2ccc(C(=O)/C=C/c3ccco3)cc2)c1,EC50,Leishmania panamensis [11],8.39 µM
O=C1C=C(c2ccc(F)cc2)S(=O)(=O)c2ccccc21,EC50,Leishmania panamensis [5],6.72 µM
same,CC50,U-937,694 µM
CCCCCCCCCCn1cc(COCC2CO2)[n+](C)n1 (stereo not drawn),IC50,Leishmania amazonensis [21],7.61 µM
CCCCC(CCCCCCC[n+]1ccn(C)c1)Oc1ccc(C(=O)/C=C/c2ccco2)cc1 (stereo not drawn),EC50,Leishmania panamensis [11],2.12 µM
same,EC50,Trypanosoma cruzi,0.72 µM
OCc1cn(-c2cc(O)ccc2O)nn1,MIC90,[22],16 µM
same,IC50,Leishmania major [23],23 µM
CC1=CC[C@@H](C(C)(C)NC(=S)N/N=C/c2cccc([N+](=O)[O-])c2)CC1,IC50,Leishmania amazonensis [24],2.4 µM
COc1cc(-c2nnc(/C=C/c3cn(-c4ccccc4)nc3-c3ccccc3)o2)cc(OC)c1OC,IC50,Leishmania donovani [25],33.3 µg/mL
same,IC50,Leishmania donovani [26],44.2 µg/mL
